Reference: patent US12319939B2, “Carbonyl reductase mutant and its application” (priority 2023, dated 2025)

How the values were obtained:
CCOC(=O)CCCCC(=O)CCCl [1] = assay: Enzyme kinetic parameters (NADPH consumption at 340 nm), triple mutant; type: biochemical, Candida orthopsilosis Co 90-125; conditions: other: R129L/D210T/S126A, substrate 0.1-10 mM, PB pH 7.0, 30° C.
Source text: (§1) The present disclosure starts with the substrate channel of the carbonyl reductase protein structure of Candida orthopsilosis Co 90-125 (amino acid sequence as shown in SEQ ID NO: 1) with ID XP 003867714.1 in Genbank, analyzes the entrance segment and internal structural characteristics of the substrate channel, and performs iterative saturation mutagenesisit through semi-rational design, so as to determine that the key factor affecting the initial enzymatic properties of carbonyl reductase is the amino acids at positions R129, D210 and S126. […] On this basis, serine (Ser) at position 126 is replaced with alanine (Ala), to obtain the triple mutant R129L/D210T/S126A (amino acid sequence as shown in SEQ ID NO: 5).
(§2) While the triple mutation changed from AGC to GCG at codons 376-378 of the carbonyl reductase double mutant gene sequence, thereby replacing serine(S) with alanine (A) at position 126 of the amino acid sequence, to obtain a triple mutant, wherein its amino acid sequence is shown in SEQ ID NO: 5, and the nucleotide sequence of the coding gene is shown in SEQ ID NO: 6.
(§3) One enzyme activity unit U is defined as the amount of enzyme required to consume 1 μmol NADPH within 1 minute.
(§4) The substrate concentration was set to be 0.1-10 mM, and the rest was the same enzyme activity determination system and reaction conditions as described above.

[2] = target: Candida orthopsilosis Co 90-125 carbonyl reductase CoCR 13 (Genbank XP_003867714.1), wild type (WT), SEQ ID NO: 1 (Lodderomyces orthopsilosis, UniProt H8WZT2); assay: Enzyme kinetic parameters (NADPH consumption at 340 nm), initial carbonyl reductase; type: biochemical
Source text: On this basis, serine (Ser) at position 126 is replaced with alanine (Ala), to obtain the triple mutant R129L/D210T/S126A (amino acid sequence as shown in SEQ ID NO: 5).
Through gene mining, the carbonyl reductase gene with Genbank ID XP_003867714.1 was screened from the NCBI database. The open reading frame of this gene is 1005 bp long, the carbonyl reductase encoded by it consists of 334 amino acids, and its amino acid sequence (334aa) is:
as §3, §4

[3] = target: Candida orthopsilosis Co 90-125 carbonyl reductase CoCR 13 variant R129L/D210T, SEQ ID NO: 3 (Lodderomyces orthopsilosis, UniProt H8WZT2, D210T/R129L); assay: Enzyme kinetic parameters (NADPH consumption at 340 nm), double mutant; type: biochemical
Source text: as §1
(§5) The double mutation R129L/D210T changed the codons 385-387 of the carbonyl reductase gene sequence from CGT to CTG, thereby replacing the 129th position of the amino acid sequence from arginine (R) to leucine (L); changed the codons 628-630th position from GAT to ACC, thereby the 210th position of the amino acid sequence from aspartic acid (D) to threonine (T), to obtain an enzyme mutant, wherein its amino acid sequence is shown in SEQ ID NO: 3, and the nucleotide sequence of the coding gene is shown in SEQ ID NO: 4.
as §3, §4

[4] = target: Candida orthopsilosis Co 90-125 carbonyl reductase CoCR 13 variant R129L/D210T/S126A, SEQ ID NO: 5 (Lodderomyces orthopsilosis, UniProt H8WZT2, D210T/R129L/S126A); assay: Enzyme kinetic parameters (NADPH consumption at 340 nm), triple mutant; type: biochemical
Source text: as §1, §2, §3, §4

CCOC(=O)CCCCC(=O)CCCl [5] = assay: Enzyme kinetic parameters (NADPH consumption at 340 nm), double mutant; type: biochemical, Candida orthopsilosis Co 90-125; conditions: other: R129L/D210T, substrate 0.1-10 mM, PB pH 7.0, 30° C.
Source text: as §1, §5, §3, §4

[6] = WT, substrate 0.1-10 mM, NADPH, PB pH 7.0, 30° C.
[7] = R129L/D210T, substrate 0.1-10 mM, NADPH, PB pH 7.0, 30° C.
[8] = R129L/D210T/S126A, substrate 0.1-10 mM, NADPH, PB pH 7.0, 30° C.

## Candida orthopsilosis Co 90-125 carbonyl reductase CoCR 13 variant R129L/D210T/S126A, SEQ ID NO: 5 (Lodderomyces orthopsilosis Co 90-125; D210T/R129L/S126A)
CCOC(=O)CCCCC(=O)CCCl [1]
  Km: 810 ± 110 µM

## CCOC(=O)CCCCC(=O)CCCl [8-chloro-6-oxooctanoic acid ethyl ester]
[2]; WT as reference (1.00)
  Relative catalytic efficiency: 1.00
[2]; [6]
  Catalytic efficiency (kcat/Km): 920 M⁻¹ s⁻¹
  Number of conversions (kcat): 4.7 ± 0.33 s⁻¹
[3]; R129L/D210T relative to WT
  Relative catalytic efficiency: 31.65
[3]; [7]
  Catalytic efficiency (kcat/Km): 29120 M⁻¹ s⁻¹
  Number of conversions (kcat): 50.60 ± 1.49 s⁻¹
[3]; double mutant vs initial carbonyl reductase
  catalytic efficiency increase compared to the initial carbonyl reductase: 31.65 times
[4]; R129L/D210T/S126A relative to WT
  Relative catalytic efficiency: 93.42
[4]; [8]
  Catalytic efficiency (kcat/Km): 85950 M⁻¹ s⁻¹
  Number of conversions (kcat): 69.46 ± 2.50 s⁻¹
[4]; triple mutant vs initial carbonyl reductase
  catalytic efficiency increase compared to the initial carbonyl reductase: 93.42 times

## Candida orthopsilosis Co 90-125 carbonyl reductase CoCR 13 variant R129L/D210T, SEQ ID NO: 3 (Lodderomyces orthopsilosis Co 90-125; D210T/R129L)
CCOC(=O)CCCCC(=O)CCCl [5]
  Km: 1740 ± 160 µM
